Assay results published in paper PMC7367283, “A PIP2 substitute mediates voltage sensor-pore coupling in KCNQ activation” (Communications Biology, 2020).
Several values for one entry are separate records, joined by “and”; a condition that tells them apart may be missing. Equal entries are not always repeated.

Tests used:
NaV1.5 = NaV1.5 (Homo sapiens, UniProt Q14524); assay: Cut-open oocyte recording of NaV1.5; type: cell-based; settings: 10 µM CP1
KCNQ1 = KCNQ1 (Homo sapiens, UniProt P51787); assay: Two-electrode voltage clamp of WT KCNQ1 expressed in Xenopus oocytes; type: cell-based; settings: for Current: Fig. 3b; for G/Gmax Mean: Fig. 3c; for ΔV1/2 of activation induced by CP1: Fig. 3e dose response; for Time constants of deactivation: Fig. 3d, individual values
From the text: Complementary DNA (cDNA) encoding human KCNQ1 (UniProtKB/Swiss-Prot under accession no. P51787), KCNQ2 (O43526), KCNQ3 (O43525), KCNE1 (P15382), Kir1.1 (P48048), hERG (Q12809), KV4.2 (Q63881), NaV1.5 (Q14524), NaV β1 (Q07699), CaV1.2 (Q13936), CaV β1a (Q02641), CaV α2/δ1 (P54289), and HCN4 (Q9Y3Q4) were subcloned into oocyte expression vectors, respectively. Site-directed mutations of the KCNQ1 channel were all produced by overlap extension polymerase chain reaction (PCR) with high-fidelity Pfu polymerase (Stratagene, CA). The presence of the desired mutation was verified by sequencing the PCR-amplified regions. All the primer sequences used in this study are available in Supplementary Table 1. The complementary RNA (cRNA) of all these channels and mutations was transcribed in vitro with the T3, T7, or SP6 polymerase mMessage mMachine kit (Invitrogen, Thermo Fisher Scientific, MO). The use of Xenopus laevis to obtain oocytes was approved by the Washington University Animal Studies Committee (protocol #20190030). Oocytes were manually dispersed and digested with collagenase (0.5 mg/ml, Sigma-Aldrich, Saint Louis, MO) to remove the follicle cell layer. Stage V or VI oocytes were selected and injected with cRNAs (9.2 ng) of channel or mutations. Especially, to characterize IKs, a mix of cRNAs at a molar ratio 4:1 (KCNQ1:KCNE1) was injected. For KCNQ2/KCNQ3, the molar ratio was 1:1 (KCNQ2:KCNQ3). For sodium channels, a 3:1 molar ratio (β1:NaV1.5) and for calcium channels a weight ratio 1:1:1 (β1:α2/δ1:CaV1.2) was injected, respectively. Injected oocytes were incubated in ND96 solution containing (in mM) 96 NaCl, 2 KCl, 1.8 CaCl2, 1 MgCl2, and 5 HEPES, pH 7.6, supplemented with 2.5 mM Na pyruvate and 1% penicillin-streptomycin, at 18 °C for 3-7 days before recording. All electrophysiological recordings on oocytes and isolated ventricular cells were performed at room temperature (20-23 °C). The whole-oocyte ionic currents were recorded with a GeneClamp 500B amplifier (Axon Instruments, CA) or iTEV90 amplifier (HEKA, Germany) and then sampled at 1 kHz and low-pass-filtered at 2 kHz. The Patchmaster software (HEKA, Germany) was used to acquire data. The Kir1.1 current was recorded with a high K^+ bath solution containing (in mM) 96 KCl, 4 NaCl, 1 CaCl2, 2 MgCl2, and 10 HEPES, pH 7.3-7.4. The HCN4 current was recorded in ND66 solution containing (in mM) 66 NaCl, 32 KCl, 1.8 CaCl2, 1 MgCl2, and 5 HEPES, pH 7.6. All the other potassium channels were recorded in ND96 solution. The currents of CaV1.2 channel were recorded in 40 mM Ba^2+ bath solution containing (in mM) 40 Ba(OH)2, 50 TEA-OH, 2 KOH, and 5 HEPES, adjusted to pH 7.4 with methanesulfonic acid. […] All the chemicals were purchased from Sigma-Aldrich. To measure the I-V relations of the Kir1.1 channel, the test voltage was set from -100 to +60 mV for 1 s with 20-mV increments. […] The HCN4 currents were recorded by a test pulse between -30 and -140 mV in 10-mV step from a holding potential of -30 mV. For all the other potassium channels and CaV1.2 channel, the holding potential was -80 or -100 mV, and the test pulse was applied with 10-mV increment, which was followed with a repolarization pulse at -40 mV before returning to the holding potential. The durations of test and the repolarization pulse vary for different channels to allow the activation and deactivation of the channel to reach their steady states. Electrophysiology data were processed with IGOR (Wavemetrics, Lake Oswego, OR), Clampfit (Molecular Devices, Sunnyvale, CA), and SigmaPlot (SPSS, Inc., San Jose, CA). Normalized tail currents were plotted versus prepulse voltage and fitted with the Boltzmann function G = G0 + 1/(1 + exp(V - V1/2)/S), where G0 is the minimum conductance, V1/2 is the half-maximal voltage of activation, and S is the slope factor. […]

Sequence of NaV1.5 (Q14524 whole entry): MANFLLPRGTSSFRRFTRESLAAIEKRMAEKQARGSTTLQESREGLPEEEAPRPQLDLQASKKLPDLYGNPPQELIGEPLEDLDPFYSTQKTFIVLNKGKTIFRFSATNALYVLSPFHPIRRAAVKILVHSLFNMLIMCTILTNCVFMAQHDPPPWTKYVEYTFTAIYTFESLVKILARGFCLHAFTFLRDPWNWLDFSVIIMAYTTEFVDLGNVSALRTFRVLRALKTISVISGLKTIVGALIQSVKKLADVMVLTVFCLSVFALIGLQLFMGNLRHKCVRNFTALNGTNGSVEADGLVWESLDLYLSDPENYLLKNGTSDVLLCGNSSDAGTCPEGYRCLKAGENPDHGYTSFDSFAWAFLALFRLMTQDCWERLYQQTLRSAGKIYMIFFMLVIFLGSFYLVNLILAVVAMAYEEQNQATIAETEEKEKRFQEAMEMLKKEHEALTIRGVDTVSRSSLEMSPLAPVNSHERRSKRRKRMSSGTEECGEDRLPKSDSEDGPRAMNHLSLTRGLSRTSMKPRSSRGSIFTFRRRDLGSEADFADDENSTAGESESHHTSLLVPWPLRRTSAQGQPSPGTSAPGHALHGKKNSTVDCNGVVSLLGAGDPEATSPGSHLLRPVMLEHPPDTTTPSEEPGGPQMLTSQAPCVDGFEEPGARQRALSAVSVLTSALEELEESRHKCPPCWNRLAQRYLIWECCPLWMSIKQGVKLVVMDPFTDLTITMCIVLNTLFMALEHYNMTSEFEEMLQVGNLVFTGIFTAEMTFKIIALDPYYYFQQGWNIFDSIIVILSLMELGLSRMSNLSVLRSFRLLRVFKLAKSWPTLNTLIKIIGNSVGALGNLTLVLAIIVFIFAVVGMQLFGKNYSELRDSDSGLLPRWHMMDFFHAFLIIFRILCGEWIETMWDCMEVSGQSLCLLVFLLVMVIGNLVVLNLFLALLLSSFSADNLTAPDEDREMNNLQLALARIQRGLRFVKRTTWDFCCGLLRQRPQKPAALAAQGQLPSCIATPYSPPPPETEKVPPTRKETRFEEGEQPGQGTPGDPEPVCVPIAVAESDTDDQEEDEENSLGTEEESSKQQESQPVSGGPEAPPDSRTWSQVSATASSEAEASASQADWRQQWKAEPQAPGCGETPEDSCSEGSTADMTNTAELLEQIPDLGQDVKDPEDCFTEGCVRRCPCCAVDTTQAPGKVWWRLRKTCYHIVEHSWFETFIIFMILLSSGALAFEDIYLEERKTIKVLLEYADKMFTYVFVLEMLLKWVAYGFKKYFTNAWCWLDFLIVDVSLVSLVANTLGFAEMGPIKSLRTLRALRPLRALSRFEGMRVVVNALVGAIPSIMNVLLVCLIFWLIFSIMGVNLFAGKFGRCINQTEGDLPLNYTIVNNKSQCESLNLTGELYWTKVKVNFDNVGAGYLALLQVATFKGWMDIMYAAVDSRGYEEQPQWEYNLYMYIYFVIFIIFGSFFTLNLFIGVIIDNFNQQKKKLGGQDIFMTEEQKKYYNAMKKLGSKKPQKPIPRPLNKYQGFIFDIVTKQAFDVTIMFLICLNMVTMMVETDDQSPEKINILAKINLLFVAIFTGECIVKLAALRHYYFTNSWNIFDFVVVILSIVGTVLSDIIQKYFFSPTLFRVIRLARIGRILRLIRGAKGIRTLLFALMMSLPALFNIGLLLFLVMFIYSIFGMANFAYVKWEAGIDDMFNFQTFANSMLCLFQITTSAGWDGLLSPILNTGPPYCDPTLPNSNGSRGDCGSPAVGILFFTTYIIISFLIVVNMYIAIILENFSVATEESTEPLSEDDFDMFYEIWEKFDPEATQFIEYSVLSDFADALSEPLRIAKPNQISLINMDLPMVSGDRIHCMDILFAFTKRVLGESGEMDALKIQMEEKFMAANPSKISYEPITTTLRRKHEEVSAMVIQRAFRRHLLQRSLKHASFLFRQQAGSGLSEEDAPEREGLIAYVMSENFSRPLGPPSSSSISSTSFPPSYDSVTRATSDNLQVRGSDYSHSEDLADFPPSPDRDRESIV
Sequence of NaV1.5 (Q07699 19-218 partner): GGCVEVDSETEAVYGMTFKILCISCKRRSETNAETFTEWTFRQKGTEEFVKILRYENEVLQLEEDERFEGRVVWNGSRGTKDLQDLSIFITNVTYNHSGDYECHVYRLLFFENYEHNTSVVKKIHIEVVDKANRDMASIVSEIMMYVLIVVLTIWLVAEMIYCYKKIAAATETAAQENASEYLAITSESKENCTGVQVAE

## O=S(=O)([O-])Oc1c(-c2sc3c(ccc4cccc(Cl)c43)c2OS(=O)(=O)[O-])[nH]c2ccc(Br)cc12.[Na+].[Na+] [CP1, DISODIUM 5-BROMO-2-[9-CHLORO-3-(SULFONATOOXY) NAPHTHO [1,2-B] THIEN-2-YL]-1H-INDOL-3-YL SULFATE]
NaV1.5; voltage -140 mV
  G/Gmax Mean (Fig. 6d): 0.0026
NaV1.5; voltage -160 mV
  G/Gmax Mean (Fig. 6d): 0.0055
KCNQ1; 10 µM CP1, Q1, at −10 mV, individual oocytes
  outward current (Icp1/Ictrl): 0.8052 and 0.8187 and 0.929 and 0.8224 and 0.7283
KCNQ1; 10 µM CP1, Q1, individual oocytes (Fig. 5c)
  ∆V1/2: 44.3815 mV and 57.8695 mV and 53.8703 mV and 54.2596 mV and 54.8585 mV
KCNQ1; 10 µM CP1, WT, individual oocytes
  ∆V1/2: 47.2416 mV and 59.5412 mV and 44.3815 mV and 57.8695 mV and 53.8703 mV and 54.2596 mV and 54.8585 mV and 51.8892 mV and 58.8475 mV and 52.7212 mV and 56.3253 mV
KCNQ1; 10 µM CP1 treated, Q1, individual oocytes
  τ deact at -120 mV: 1.3301 s and 1.9909 s and 0.8395 s and 0.9034 s and 1.9351 s and 1.4782 s and 1.0081 s
KCNQ1; 10 µM CP1, 0 mV
  Current: 3.7050 µA
  G/Gmax Mean: 0.9915
KCNQ1; 10 µM CP1, 10 mV
  Current: 4.0550 µA
  G/Gmax Mean: 0.9924
KCNQ1; 10 µM CP1, 20 mV
  Current: 4.3975 µA
KCNQ1; 10 µM CP1, 30 mV
  Current: 4.6856 µA
KCNQ1; 10 µM CP1, 40 mV
  Current: 4.8369 µA
KCNQ1; 10 µM CP1, -10 mV
  Current: 3.2725 µA
  G/Gmax Mean: 1.0000
KCNQ1; 10 µM CP1, -20 mV
  Current: 2.9419 µA
  G/Gmax Mean: 0.9950
KCNQ1; 10 µM CP1, -30 mV
  Current: 2.4731 µA
  G/Gmax Mean: 0.9789
KCNQ1; 10 µM CP1, -40 mV
  Current: 1.9956 µA
  G/Gmax Mean: 0.9526
KCNQ1; 10 µM CP1, -50 mV
  Current: 1.5250 µA
  G/Gmax Mean: 0.9082
KCNQ1; 10 µM CP1, -60 mV
  Current: 1.0387 µA
  G/Gmax Mean: 0.8392
KCNQ1; 10 µM CP1, -70 mV
  Current: 0.5337 µA
  G/Gmax Mean: 0.7434
KCNQ1; 10 µM CP1, -80 mV
  Current: 0.1319 µA
  G/Gmax Mean: 0.6159
KCNQ1; 10 µM CP1, -90 mV
  Current: -0.1563 µA
  G/Gmax Mean: 0.4868
  Time constants of deactivation: 3656.5 ms and 3430.6 ms and 3945.9 ms and 3244.2 ms
KCNQ1; 10 µM CP1, -100 mV
  Current: -0.3112 µA
  G/Gmax Mean: 0.3712
  Time constants of deactivation: 3169.0 ms and 2901.8 ms and 2335.0 ms and 2809.3 ms and 2214.2 ms
KCNQ1; 10 µM CP1, -110 mV
  Current: -0.3831 µA
  G/Gmax Mean: 0.2836
  Time constants of deactivation: 1447.9 ms and 2103.3 ms and 1665.7 ms and 1887.0 ms and 1619.5 ms
KCNQ1; 10 µM CP1, -120 mV
  Current: -0.4494 µA
  G/Gmax Mean: 0.2306
  Time constants of deactivation: 823.6 ms and 1460.2 ms and 1255.8 ms and 1290.8 ms and 1343.2 ms
KCNQ1; 1 µM CP1, individual values
  ΔV1/2 of activation induced by CP1: 10.5419 and 2.1756 and 5.0919
KCNQ1; 2 µM CP1, individual values
  ΔV1/2 of activation induced by CP1: 12.1917 and 9.8070 and 18.4095 and 22.1605 and 21.9879 and 9.1767 and 12.7137
KCNQ1; 5 µM CP1, individual values
  ΔV1/2 of activation induced by CP1: 24.5897 and 25.8044 and 18.4530 and 34.4519 and 16.0115 and 11.0322
KCNQ1; 10 µM CP1, individual values
  ΔV1/2 of activation induced by CP1: 47.2416 and 73.6056 and 59.5412 and 44.3815 and 57.8695 and 53.8703 and 54.2596 and 54.8585 and 51.8892 and 58.8475 and 52.7212 and 56.3253
KCNQ1; 25 µM CP1, individual values
  ΔV1/2 of activation induced by CP1: 80.4973 and 70.5486 and 58.5444
KCNQ1; 50 µM CP1, individual values
  ΔV1/2 of activation induced by CP1: 90.4999 and 79.3797 and 90.4855
KCNQ1; KCNQ1 expressed alone in oocytes, Hill fit, read-out: EC50 of G–V shift (ΔV1/2 of activation) versus CP1 concentration
  EC50: 8.73 ± 0.68 µM
KCNQ1; Supplementary Fig. 2
  ion selectivity of KCNQ1 channels: does not alter the ion selectivity
KCNQ1; WT, 10 µM CP1, -20 mV
  G/Gmax: 1.0000
KCNQ1; WT, 10 µM CP1, -30 mV
  G/Gmax: 0.9911
KCNQ1; WT, 10 µM CP1, -40 mV
  G/Gmax: 0.9627
KCNQ1; WT, 10 µM CP1, -50 mV
  G/Gmax: 0.9093
KCNQ1; WT, 10 µM CP1, -60 mV
  G/Gmax: 0.8189
KCNQ1; WT, 10 µM CP1, -70 mV
  G/Gmax: 0.6709
KCNQ1; WT, 10 µM CP1, -80 mV
  G/Gmax: 0.4831
KCNQ1; WT, 10 µM CP1, -90 mV
  G/Gmax: 0.2996
KCNQ1; WT, 10 µM CP1, -100 mV
  G/Gmax: 0.1522
KCNQ1; WT, 10 µM CP1, -110 mV
  G/Gmax: 0.0549
KCNQ1; WT, 10 µM CP1, -120 mV
  G/Gmax: 0.0000
